Laboratory results reported in patent US20230066011A1, “PYRROLOPYRIMIDINE DERIVATIVE, AND PHARMACEUTICAL COMPOSITION FOR PREVENTING OR TREATING PROTEIN KINASE-RELATED DISEASE COMPRISING SAME AS ACTIVE INGREDIENT” (VORONOI CO., LTD., priority 2019, published 2023).

Assays:
[1] = biological target: T1, human GST-DYRK1A (Homo sapiens, UniProt Q13627); test: GST-DYRK1A enzyme inhibition, ADP-Glo kinase assay; assay type: biochemical; conditions: ATP 10 μM, GST-DYRK1A full length, read-out: DYRK1 IC50
T1 construct: purified human GST-DYRK1A (full length, Thermo Scientifics) enzyme; purchased Thermo Scientifics
Procedure: (§1) To evaluate an inhibitory activity of the compound according to the present invention against LRRK2, LRRK2 (G2019S), DYRK1, CLK1, and TTK kinases, experiments were performed as follows.
(§2) Each of the Example compounds was reacted with a purified human GST-DYRK1A (full length, Thermo Scientifics) enzyme to evaluate an ability to inhibit an enzyme using a method as described below. A composition of 40 mM Tris-HCl (pH 7.4), 20 mM MgCl2, 0.5 mg/mL BSA, and 50 μM DTT was used as a reaction buffer, and all reactions of test substances were performed in the reaction buffer. In the test, purified ATP (10 μM) and a specific substrate solution were reacted with a human GST-DYRK1A (full length, 10 ng) enzyme at 25° C. for an hour, and the enzyme activities were then determined using an in vitro ADP-Glo™ kinase assay (Promega). An enzyme-activity reaction solution, an ADP-Glo reaction solution, and an enzyme-ability detection solution were reacted at a ratio of 2:2:1 to measure a degree of inhibition of the enzyme activity with luminescence. The degree of inhibition of the enzyme activity according to the treatment concentration of each of the compounds was calculated based on the fluorescence of the enzyme activity of the solvent control which was not treated with the compound. In this case, the concentration of each of the compounds inhibiting 50% of the enzyme activity was determined to be an IC50 (nM) value, and the IC50 (nM) value of each of the compounds was determined from 3 sets of data, and calculated using Prism (Version 5.01; GraphPad) software.

[2] = biological target: T2, human GST-CLK1 (Homo sapiens, UniProt P49759); test: GST-CLK1 enzyme inhibition, ADP-Glo kinase assay; assay type: biochemical; conditions: ATP 10 μM, GST-CLK1 129-end
T2 construct: purified human GST-CLK1 (129-end, SignalChem) enzyme; purchased SignalChem
T2 sequence (P49759 129-484 limits assumed): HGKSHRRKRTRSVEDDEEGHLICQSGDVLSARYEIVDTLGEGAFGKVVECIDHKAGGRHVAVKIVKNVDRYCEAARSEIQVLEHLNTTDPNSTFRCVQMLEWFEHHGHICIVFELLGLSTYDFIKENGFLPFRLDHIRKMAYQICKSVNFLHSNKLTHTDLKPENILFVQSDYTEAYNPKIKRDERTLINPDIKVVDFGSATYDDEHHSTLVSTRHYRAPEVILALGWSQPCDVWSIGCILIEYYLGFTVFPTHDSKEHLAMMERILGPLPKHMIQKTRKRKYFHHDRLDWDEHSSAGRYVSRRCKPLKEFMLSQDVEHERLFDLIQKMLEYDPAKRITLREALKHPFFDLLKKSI
Procedure: as §1
as §2, with “GST-CLK1 (129-end, SignalChem)” for “GST-DYRK1A (full length, Thermo Scientifics)”, “GST-CLK1 (129-end, 3” for “GST-DYRK1A (full length, 10”, “value. The” for “value, and the”

Row | IC50 [1] | IC50 [2] | SMILES
1 | 301 to 1000 nM | 301 to 1000 nM | COc1cc(S(C)(=O)=O)ccc1Nc1nc(NCC2CCC2)c2c(C(F)(F)F)c[nH]c2n1 [Example 198, N^4-(cyclobutylmethyl)-N^2-(2-methoxy-4-(methylsulfonyl)phenyl)-5-(trifluoromethyl)-7H-pyrrolo[2,3-d]pyrimidine-2,4-diamine]
2 | 301 to 1000 nM | < 100 nM | CC(C)CNc1nc(Nc2ccc(C(=O)N3CCC(N4CCOCC4)CC3)c3c2OCCO3)nc2[nH]cc(C(F)(F)F)c12 [Example 199, (8-((4-(isobutylamino)-5-(trifluoromethyl)-7H-pyrrolo[2,3-d]pyrimidin-2-yl)amino)-2,3-dihydrobenzo[b][1,4]dioxin-5-yl)(4-morpholinopiperidin-1-yl)methanone]
3 | 301 to 1000 nM | < 100 nM | O=C(c1ccc(Nc2nc(NCC3CC3)c3c(C(F)(F)F)c[nH]c3n2)c2c1OCCO2)N1CCOCC1 [Example 201, (8-((4-((cyclopropylmethyl)amino)-5-(trifluoromethyl)-7H-pyrrolo[2,3-d]pyrimidin-2-yl)amino)-2,3-dihydrobenzo[b][1,4]dioxin-5-yl)(morpholino)methanone]
4 | 101 to 300 nM | 301 to 1000 nM | O=C(c1ccc(Nc2nc(NC3CCCCC3)c3c(C(F)(F)F)c[nH]c3n2)c2c1OCCO2)N1CCC(N2CCOCC2)CC1 [Example 204, (8-((4-(cyclohexylamino)-5-(trifluoromethyl)-7H-pyrrolo[2,3-d]pyrimidin-2-yl)amino)-2,3-dihydrobenzo[b][1,4]dioxin-5-yl)(4-morpholinopiperidin-1-yl)methanone]
5 | 301 to 1000 nM | 301 to 1000 nM | O=C(c1ccc(Nc2nc(NCC3CCCC3)c3c(C(F)(F)F)c[nH]c3n2)c2c1OCCO2)N1CCOCC1 [Example 205, (8-((4-((cyclopentylmethyl)amino)-5-(trifluoromethyl)-7H-pyrrolo[2,3-d]pyrimidin-2-yl)amino)-2,3-dihydrobenzo[b][1,4]dioxin-5-yl)(morpholino)methanone]
6 | 301 to 1000 nM | 301 to 1000 nM | COc1cc(S(C)(=O)=O)ccc1Nc1nc(NCC2CCCC2)c2c(C(F)(F)F)c[nH]c2n1 [Example 206, N^4-(cyclopentylmethyl)-N^2-(2-methoxy-4-(methylsulfonyl)phenyl)-5-(trifluoromethyl)-7H-pyrrolo[2,3-d]pyrimidine-2,4-diamine]
7 | 301 to 1000 nM | 301 to 1000 nM | CCCCNc1nc(Nc2ccc(C(=O)N3CCOCC3)c3c2OCCO3)nc2[nH]cc(C(F)(F)F)c12 [Example 208, (8-((4-(butylamino)-5-(trifluoromethyl)-7H-pyrrolo[2,3-d]pyrimidin-2-yl)amino)-2,3-dihydrobenzo[b][1,4]dioxin-5-yl)(morpholino)methanone]
8 | 301 to 1000 nM | 301 to 1000 nM | COCCNc1nc(Nc2ccc(S(=O)(=O)N3CCC(N4CCOCC4)CC3)cc2OC)nc2[nH]cc(C(N)=O)c12 [Example 233, 2-((2-methoxy-4-((4-morpholinopiperidin-1-yl)sulfonyl)phenyl)amino)-4-((2-methoxyethyl)amino)-7H-pyrrolo[2,3-d]pyrimdiine-5-carboxamide]
9 | 301 to 1000 nM | 301 to 1000 nM | COCCNc1nc(Nc2ccc(S(C)(=O)=O)cc2OC)nc2[nH]cc(C(N)=O)c12 [Example 234, 2-((2-methoxy-4-(methylsulfonyl)phenyl)amino)-4-((2-methoxy)amino)-7H-pyrrolo[2,3-d]pyrimidine-5-carboxamide]
10 | 301 to 1000 nM | 301 to 1000 nM | COc1cc(P2(=O)CCN(C3COC3)CC2)ccc1Nc1nc(NC2CCCC2)c2cc[nH]c2n1 [Example 239, 4-(4-((4-(cyclopentylamino)-7H-pyrrolo[2,3-d]pyrimidin-2-yl)amino)-3-methoxyphenyl)-1-(oxetan-3-yl)-1,4-azaphosphinane 4-oxide]
11 | 301 to 1000 nM | 301 to 1000 nM | COc1cc(P2(=O)CCN(C3COC3)CC2)ccc1Nc1nc(NC2CCCCC2)c2cc[nH]c2n1 [Example 240, 4-(4-((4-(cyclohexylamino)-7H-pyrrolo[2,3-d]pyrimidin-2-yl)amino)-3-methoxyphenyl)-1-(oxetan-3-yl)-1,4-azaphosphinane 4-oxide]
12 | 101 to 300 nM | 301 to 1000 nM | CCNc1nc(Nc2ccc(P(C)(C)=O)cc2OC)nc2[nH]cc(C#N)c12 [Example 252, 2-((4-(dimethylphosphoryl)-2-methoxyphenyl)amino)-4-(ethylamino)-7H-pyrrolo[2,3-d]pyrimidine-5-carbonitrile]
13 | 301 to 1000 nM | 301 to 1000 nM | CNc1nc(Nc2ccc(P(C)(C)=O)cc2OC)nc2[nH]cc(C#N)c12 [Example 253, 2-((4-(dimethylphosphoryl)-2-methoxyphenyl)amino)-4-(methylamino)-7H-pyrrolo[2,3-d]pyrimidine-5-carbonitrile]
14 | 101 to 300 nM | 101 to 300 nM | CCCNc1nc(Nc2ccc(P(C)(C)=O)cc2OC)nc2[nH]cc(C#N)c12 [Example 254, 2-((4-(dimethylphosphoryl)-2-methoxyphenyl)amino)-4-(propylamino)-7H-pyrrolo[2,3-d]pyrimidine-5-carbonitrile]
15 | 301 to 1000 nM | 301 to 1000 nM | COc1cc(P(C)(C)=O)ccc1Nc1nc(NCC(C)C)c2c(C#N)c[nH]c2n1 [Example 255, 2-((4-(dimethylphosphoryl)-2-methoxyphenyl)amino)-4-(isobutylamino)-7H-pyrrolo[2,3-d]pyrimidine-5-carbonitrile]
16 | 301 to 1000 nM | < 100 nM | CCNc1nc(Nc2ccc(C(=O)N3CCC(N4CCOCC4)CC3)c3c2OCCO3)nc2[nH]cc(C#N)c12 [Example 258, 4-(ethylamino)-2-((8-(4-morpholinopiperidine-1-carbonyl)-2,3-dihydrobenzo[b][1,4]dioxin-5-yl)amino)-7H-pyrrolo[2,3-d]pyrimidine-5-carbonitrile]
17 | 301 to 1000 nM | 301 to 1000 nM | CC[C@@H](C)Nc1nc(Nc2ccc(S(C)(=O)=O)cc2OC)nc2[nH]cc(C#N)c12 [Example 262, (R)-4-(sec-butylamino)-2-((2-methoxy-4-(methylsulfonyl)phenyl)amino)-7H-pyrrolo[2,3-d]pyrimidine-5-carbonitrile]
18 | 101 to 300 nM | < 100 nM | CCNc1nc(Nc2ccc(C(=O)N3CCC(N4CCOCC4)CC3)c3c2OCO3)nc2[nH]cc(C#N)c12 [Example 264, 4-(ethyalmino)-2-((7-(4-morpholino-1-carbonyl)benzo[d][1,3]dioxol-4-yl)amino)-7H-pyrrolo[2,3-d]pyrimidine-5-carbonitrile]
19 | 101 to 300 nM | 101 to 300 nM | CCNc1nc(Nc2ccc(C(=O)N3CCN(C4COC4)CC3)c3c2OCCO3)nc2[nH]cc(C#N)c12 [Example 265, 4-(ethylamino)-2-((8-(4-(oxetan-3-yl)piperazine-1-carbonyl)-2,3-dihydrobenzo[b][1,4]dioxin-5-yl)amino)-7H-pyrrolo[2,3-d]pyrimidine-5-carbonitrile]
20 | 101 to 300 nM | < 100 nM | CC[C@@H](C)Nc1nc(Nc2ccc(P(C)(C)=O)cc2OC)nc2[nH]cc(C#N)c12 [Example 266, (R)-4-(sec-butylamino)-2-((4-(dimethylphosphoryl)-2-methoxyphenyl)amino)-7H-pyrrolo[2,3-d]pyrimidine-5-carbonitrile]
